In article PMC5735191, “Computational and biological profile of boronic acids for the detection of bacterial serine- and metallo-β-lactamases” (Scientific Reports, 2017):

Assays:
NDM-1 = NDM-1 (Klebsiella pneumoniae, UniProt C7C422)
Procedure: 24h at 37 °C. Cells were recovered by centrifugation (4,500 rpm, 4 °C, 20 min) and resuspended in
200 mL of buffer A (10 mM Hepes, 0.15 M NaCl, pH7.5). The cells were lyzed by sonication
(Sonopuls HD-2200) and the cell debris removed by centrifugation (12,000 rpm, 4 °C, 30 min) in
the presence of Protease Inhibitor Complete (Roche). The clarified sample was loaded onto a 5mL
HisTrap Fast Flow column (GE Healthcare). The protein was eluted with imidazole (350 mM in
buffer A) The active fractions were pooled, concentrated by ultrafiltration (Amicon Ultra 15, MW
cut-off, 10 kDa), desalted (Hi Prep 26/10 Desalting) in buffer B (20mM triethanolamine, 50 µM
ZnSO4, pH 7.2) to remove imidazole. β -lactamase activity was monitored using the hydrolysis rate
The authenticity and purity of the final protein sample was confirmed by

VIM-2 = VIM-2 (Escherichia coli, UniProt Q5U7L7)
Source text: VIM-2. The VIM-2 metallo-β-lactamase was purified from a 2 L culture of BL21-DE3/pET9-VIM-
2 as previously described3. Briefly, the protein was purified from the culture supernatant,
concentrated by ultrafiltration, and purified using two anion exchange chromatography steps,
followed by a final gel filtration step, as described. β-lactamase activity was monitored using the
The authenticity and purity of the final protein sample was
confirmed by ESI-MS and SDS-PAGE.
Protein purification methods and kinetic profile characterization details: the Table reports the
step-by-step purification procedure for each β-lactamase protein, indicating the β-lactam substrate
used for kinetic profile characterization (kcat, Km and specificity constant evaluation) and the
proper concentration of enzyme used in the assay for each BL class.

Sequence of NDM-1 (C7C422 29-270 limits assumed): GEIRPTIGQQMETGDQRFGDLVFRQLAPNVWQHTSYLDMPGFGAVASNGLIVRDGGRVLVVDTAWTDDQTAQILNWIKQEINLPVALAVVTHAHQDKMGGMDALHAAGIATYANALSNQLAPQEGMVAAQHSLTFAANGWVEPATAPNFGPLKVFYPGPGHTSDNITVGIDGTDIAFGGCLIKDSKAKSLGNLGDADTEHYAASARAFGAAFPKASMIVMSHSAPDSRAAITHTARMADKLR

Work on `C[C@@H](O)[C@H]1C(=O)N2C(C(=O)O)=C(SCCN=CN)C[C@H]12` [Imipenem, imipenem] yielded a kcat (NDM-1; β-lactam substrate of NDM-1) of 520 ± 84 s⁻¹, a Km (NDM-1; β-lactam substrate of NDM-1, enzyme 0.021 µM) of 58 ± 6 µM and a kcat (VIM-2; β-lactam substrate of VIM-2) of 8 ± 2 s⁻¹. It also gave a Km (VIM-2; β-lactam substrate of VIM-2, enzyme 0.043 µM) of 11 ± 3 µM.
